Experimental data taken from US10913714B2, “Pyrrole sulfonyl derivative, preparation method and medical use thereof” (JIANGSU CAREPHAR PHARMACEUTICAL CO., LTD, priority 2015, dated 2021).
Where a name gives a salt, the structure may show the parent alone.

How the values were obtained:
[1] = biological target: T1, hERG potassium channel (Homo sapiens, UniProt Q12809); experiment: Whole cell patch clamp, inhibition of hERG tail current; type: cell-based; conditions: for IC50: human, hERG cells (host cell line not named), pH 7.4, whole cell patch clamp, logistic fit; for Inhibition ratio of max. test concentration (hERG current): max. test concentration 100 μM
T1 construct: expressed in transfected cells
T1 sequence (Q12809 whole entry): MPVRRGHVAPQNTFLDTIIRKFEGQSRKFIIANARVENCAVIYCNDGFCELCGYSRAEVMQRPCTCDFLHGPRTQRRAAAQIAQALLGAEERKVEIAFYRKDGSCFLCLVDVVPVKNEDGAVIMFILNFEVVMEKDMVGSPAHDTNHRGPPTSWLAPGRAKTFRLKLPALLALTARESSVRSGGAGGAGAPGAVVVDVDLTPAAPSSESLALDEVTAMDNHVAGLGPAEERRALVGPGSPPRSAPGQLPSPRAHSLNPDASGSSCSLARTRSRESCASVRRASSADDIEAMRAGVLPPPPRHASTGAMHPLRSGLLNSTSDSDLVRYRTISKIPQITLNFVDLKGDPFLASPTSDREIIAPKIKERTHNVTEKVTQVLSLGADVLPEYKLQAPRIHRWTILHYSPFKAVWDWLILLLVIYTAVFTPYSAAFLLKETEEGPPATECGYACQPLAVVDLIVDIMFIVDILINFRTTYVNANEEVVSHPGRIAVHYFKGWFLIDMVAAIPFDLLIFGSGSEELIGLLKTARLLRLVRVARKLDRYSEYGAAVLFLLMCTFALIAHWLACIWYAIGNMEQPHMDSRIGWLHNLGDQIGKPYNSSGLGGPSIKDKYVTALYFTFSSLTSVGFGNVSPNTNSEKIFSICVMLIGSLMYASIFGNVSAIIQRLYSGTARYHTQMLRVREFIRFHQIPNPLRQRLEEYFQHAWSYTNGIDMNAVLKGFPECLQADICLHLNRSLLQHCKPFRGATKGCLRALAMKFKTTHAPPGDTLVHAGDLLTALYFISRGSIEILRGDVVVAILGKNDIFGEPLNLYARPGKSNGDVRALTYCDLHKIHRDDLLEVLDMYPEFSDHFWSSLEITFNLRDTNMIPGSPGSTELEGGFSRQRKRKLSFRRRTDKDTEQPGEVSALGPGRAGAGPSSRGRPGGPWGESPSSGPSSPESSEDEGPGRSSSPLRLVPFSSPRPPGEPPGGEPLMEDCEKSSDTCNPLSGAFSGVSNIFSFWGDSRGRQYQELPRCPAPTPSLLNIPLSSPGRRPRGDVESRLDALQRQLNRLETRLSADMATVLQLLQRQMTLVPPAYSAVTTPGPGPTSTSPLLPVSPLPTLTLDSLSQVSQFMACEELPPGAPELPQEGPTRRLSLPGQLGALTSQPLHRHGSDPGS
Method: Test Case 2: Studies on the Effect of Compounds EXP 1, TAK-438 and EXP 12 on hERG Potassium Channel Testing System 1) Cell culture: the hERG cell is cultured in a routine way, which is subcultured in a DMEM containing 10% of fetal calf serum and 250 μg/ml of G418. 2) Fluid preparation: the composition of the extracellular fluid used in the experiment of whole cell patch clamp comprises (mM): NaCl 145, MgCl21, KCl 4, Glucose 10, HEPES 10 and CaCl22; adjusting the pH value of NaOH to 7.4 and adjusting the value of osmotic pressure to 300 mOsm with sucrose. The composition of the intracellular fluid comprises (mM):KCl 140; MgCl 21; EGTA 5; HEPES 10 and Na2ATP 4; adjusting the pH value of KOH to 7.2 and adjusting the value of osmotic pressure to 290 mOsm with sucrose.
Main composition of the extracellular and intracellular fluid
Test Procedure 1) Electrophysiological recording: taking out one culture dish for each test; cleaning it with the extracellular fluid twice and placing it on the inverted microscope stage. The experiment of whole cell patch clamp is conducted at ambient temperature; the resistance at the microelectrode tip of the used borosilicate glass is 3-5 MQ. 2) Voltage stimulus plan and current record: clamping down the membrane potential to −80 mV under the whole-cell recording mode; giving +50 mV of depolarized voltage stimulus to the cell every 30 s and lasting for 2 s, then repolarizing it to −50 mV and lasting for 3 s, thus, the tail current of hERG can be extracted. Giving 50 ms, −50 mV repolarized voltage to the cell before depolarized voltage stimulus; the current recorded at such voltage is as the base line for calculating the tail current of hERG. Only the cells meet the recording standard can be used in the test of the compounds to be tested. The hERG tail current should be recorded stably at last for 3 min in the extracellular fluid before the compound is added. After perfusion of drugs, it can be regarded that the drug effect reaches a steady state if the change of the amplitude of hERG tail current is less than 5%. If the current fails to reach a steady state in 6 min, the test should also be terminated. 3) Testing standard: the membrane resistance in the experiment should be more than 1,000 MQ. The initial current should be more than 300 pA. The series resistance should be less than 12 MQ after the whole-cell recording mode is constructed. The leakage current is less than 10% of the ionic channel current (taking −80 pA as the peak value). Data Analysis
Using Clampex 10.2 to record the original data and saving the data in the format of *abf. Using pCLAMP 10.1 to conduct data collection and analysis. Selecting 4-5 sweeps when the current is in a steady state before the compound is added; calculating the average peak value to serve as the contrasted current amplitude. Selecting 4-5 sweeps when the current is in a steady state after the compound is added; calculating the average peak value to serve as the residual amplitude of the inhibited current. The inhibition ratio of the compound to be tested to hERG current is calculated as per the equation as: % inhibition ratio={1−(current residual amplitude)/(contrasted current amplitude)}*100
After the inhibition ratio (average value±standard deviation) of the compound to be tested to the hERG current of different concentrations is obtained through the above computing method, the data with logistic equation should be fitted to obtain the value of IC50.

[2] = Acute toxicity test, single gavage in rats; type: in vivo; conditions: SD rat, gavage once, observed 14 days
Method: Test content: single administration dosage: 2000 mg/kg, 600 mg/kg; administration by gavage: once; volume: 10 ml/kg; observing for 14 days for the rat's behavior and weight each day.
Experimental grouping: black group, Group of 600 mg/kg, Group of 2000 mg/kg; 4 rats each group; half male and half female.

[3] = biological target: T2, H^+/K^+-ATPase (Oryctolagus cuniculus, UniProt P27112); experiment: Inhibition of H+/K+-ATPase enzymatic activity (rabbit gastric mucosal microsomes, malachite green); type: biochemical; conditions: pH 6.5, 37° C. 30 min, read-out: The median inhibitory concentration (IC50) of the compound to the activity of H^+/K^+-ATPase
T2 construct: collecting the middle layer (H^+/K^+-ATPase enriched gastric membranes) into a clean centrifugal tube; from tissue; host or cells: rabbit stomach (gastric mucosal microsomes, sucrose/Ficoll gradient centrifugation)
T2 sequence (P27112 whole entry): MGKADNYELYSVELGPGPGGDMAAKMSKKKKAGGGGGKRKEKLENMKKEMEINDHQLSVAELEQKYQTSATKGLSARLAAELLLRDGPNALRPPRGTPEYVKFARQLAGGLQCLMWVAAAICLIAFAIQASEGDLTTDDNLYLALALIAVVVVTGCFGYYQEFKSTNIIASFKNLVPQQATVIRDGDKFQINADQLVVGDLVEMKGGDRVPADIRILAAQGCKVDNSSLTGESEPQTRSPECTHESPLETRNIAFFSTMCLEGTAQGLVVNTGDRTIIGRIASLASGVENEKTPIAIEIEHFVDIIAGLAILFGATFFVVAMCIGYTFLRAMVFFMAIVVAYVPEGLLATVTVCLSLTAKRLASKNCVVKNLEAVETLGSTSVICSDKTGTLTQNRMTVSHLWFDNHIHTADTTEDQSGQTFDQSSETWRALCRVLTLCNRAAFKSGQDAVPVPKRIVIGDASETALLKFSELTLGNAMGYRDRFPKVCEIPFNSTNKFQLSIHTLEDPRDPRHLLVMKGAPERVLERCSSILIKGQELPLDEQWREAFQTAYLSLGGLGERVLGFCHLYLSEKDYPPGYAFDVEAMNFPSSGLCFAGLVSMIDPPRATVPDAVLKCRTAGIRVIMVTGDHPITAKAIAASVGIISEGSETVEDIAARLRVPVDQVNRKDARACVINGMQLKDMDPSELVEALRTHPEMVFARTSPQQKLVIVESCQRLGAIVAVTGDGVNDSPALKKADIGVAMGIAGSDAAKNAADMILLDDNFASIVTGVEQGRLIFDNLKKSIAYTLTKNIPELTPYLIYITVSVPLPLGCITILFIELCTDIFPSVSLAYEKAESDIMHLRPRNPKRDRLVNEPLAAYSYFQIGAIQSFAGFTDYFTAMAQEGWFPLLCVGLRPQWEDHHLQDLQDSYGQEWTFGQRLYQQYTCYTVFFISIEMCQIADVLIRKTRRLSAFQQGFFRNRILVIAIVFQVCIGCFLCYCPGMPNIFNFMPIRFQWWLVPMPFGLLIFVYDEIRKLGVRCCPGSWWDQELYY
T2 sequence (P18597 whole entry partner): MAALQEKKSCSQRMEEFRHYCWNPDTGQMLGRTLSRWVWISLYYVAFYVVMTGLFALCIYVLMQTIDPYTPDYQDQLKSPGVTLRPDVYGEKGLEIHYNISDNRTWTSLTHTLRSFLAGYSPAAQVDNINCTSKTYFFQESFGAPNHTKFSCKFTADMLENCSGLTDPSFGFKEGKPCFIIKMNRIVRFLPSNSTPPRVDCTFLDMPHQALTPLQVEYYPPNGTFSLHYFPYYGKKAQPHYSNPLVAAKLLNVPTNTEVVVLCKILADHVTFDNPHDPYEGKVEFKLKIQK
From the text: Biological Evaluation on H^+/K^+-ATPase
The following screening assays in vitro are used to evaluate the inhibiting effect of the compound of the Invention on the enzymatic activity of H^+/K^+-ATPase. Experimental materials and instruments are as follows:
1) Rabbit gastric mucosal microsomes (enriched H^+/K^+-ATPase; extracted by the Applicant)
2) Buffer solution: 50 mmol/L HEPEs-Tris, pH=6.5, 5 mmol/L magnesium chloride, 10 μmol/L valinomycin;
3) Buffer solution: 50 mmol/L HEPEs-Tris, pH=6.5, 5 mmol/L magnesium chloride, 10 μmol/L valinomycin, 5 mmol/L potassium chloride;
4) ATP: diluting ATP to 5 mM with buffer solution 1;
5) Malachite green solution: dissolving 0.12% of malachite green in 2.5 mol/L of sulfuric acid; mixing 7.5% (V/V) of ammonium molybdate and 11% of Tween 20(V/V) in a proportion of 100:25:2;
6) The method for extracting rabbit gastric mucosal microsomes (enriched H^+/K^+-ATPase) is sucrose gradient centrifugation, i.e., washing the rabbit stomach with tap water and 3M NaCl solution respectively and removing the surface moisture with filter paper; adding the pre-cooled buffer solution (4 ml/g tissue) for homogenation in a tissue homogenizer for 2-5 min; removing the large tissue particles in a way of centrifugation (600 g, 10 mm) if any after homogenation; transferring the supernatant to a clean centrifugal tube for centrifugation for 30 min at 2000 g; then transferring the supernatant to a clean centrifugal tube for further centrifugation for 90 min at 100000 g; collecting the sediment; suspending the sediment in the homogenate and blowing it to be uniform; measuring the protein concentration with Bradford method; adjusting the concentration to 10 mg/ml; adding 7.5% Ficoll demixing fluid in an equal proportion for centrifugation for 60 min at 100000 g; collecting the middle layer (H^+/K^+-ATPase enriched gastric membranes) into a clean centrifugal tube; diluting it with 4-5 times of homogenate for further centrifugation for 90 min at 100000 g; collecting the sediment; suspending the sediment in the homogenate for homogenation with a glass homogenizer; measuring the protein concentration with Bradford method and adjusting the concentration to 22.5 mg/ml; freezing it under −80° C. for standby. Experimental Process:
Adding 5 μL of gastric mucosal microsomes (H^+/K^+-ATPase) in 45 µL of buffer solution 2; adding 5 μL of the compound solution; adding 5 μL 5 mM of ATP to start the reaction for pre-reaction at 37° C. for 30 min; adding 15 μL of malachite green solution to terminate the reaction; balancing at ambient temperature for 20 min; reading the value of absorbed light at 620 nm.
Meanwhile, conducting another reaction with the same volume without potassium chloride for background, which will be subtracted when calculating the enzymatic activity.
The value of Compound IC50 is calculated through the inhibition ratios at different concentrations.

Compound | IC50 [1] [µM] | Inhibition ratio of max. test concentration (hERG current) [1] [%] | Death after single oral dose ([2]; 600 mg/kg) | Impact on the rat's weight ([2]; 600 mg/kg) | Death after single oral dose ([2]; 2000 mg/kg) | IC50 [3] [µM]
CNCc1cc(-c2ccccc2F)n(S(=O)(=O)c2cccc(OCCCOC)c2)c1 [EXP 1, 1-(5-(2-fluorobenzene)-1-((3-(3-methoxypropoxy)phenyl)sulfonyl)-1H-pyrrole-3-yl)-N-methyl methylamine] | 18.7 | 86.21 ± 1.67 | no death | not obvious | no death | < 0.1
CNCc1cc(-c2ccccc2F)n(S(=O)(=O)c2cccnc2)c1 [TAK-438, 5-(2-fluorophenyl)-N-methyl-1-(3-pyridylsulfonyl)-1H-pyrrole-3-methamine fumarate] | 15.9 | 88.23 ± 3.18 |  | inhibition of weight gain | all died | < 0.1
